Experiments:
JAK2 = JAK2 (Homo sapiens (Human), UniProt O60674); experiment: JAK2 versus JAK1 (Assay A at 1 mM ATP); format: biochemical; settings: ratio JAK2/JAK1, Assay A at 1 mM ATP
PI3K = PI3K inhibition according to at least one assay described herein; format: biochemical

JAK2, sequence (O60674 whole entry, species assumed): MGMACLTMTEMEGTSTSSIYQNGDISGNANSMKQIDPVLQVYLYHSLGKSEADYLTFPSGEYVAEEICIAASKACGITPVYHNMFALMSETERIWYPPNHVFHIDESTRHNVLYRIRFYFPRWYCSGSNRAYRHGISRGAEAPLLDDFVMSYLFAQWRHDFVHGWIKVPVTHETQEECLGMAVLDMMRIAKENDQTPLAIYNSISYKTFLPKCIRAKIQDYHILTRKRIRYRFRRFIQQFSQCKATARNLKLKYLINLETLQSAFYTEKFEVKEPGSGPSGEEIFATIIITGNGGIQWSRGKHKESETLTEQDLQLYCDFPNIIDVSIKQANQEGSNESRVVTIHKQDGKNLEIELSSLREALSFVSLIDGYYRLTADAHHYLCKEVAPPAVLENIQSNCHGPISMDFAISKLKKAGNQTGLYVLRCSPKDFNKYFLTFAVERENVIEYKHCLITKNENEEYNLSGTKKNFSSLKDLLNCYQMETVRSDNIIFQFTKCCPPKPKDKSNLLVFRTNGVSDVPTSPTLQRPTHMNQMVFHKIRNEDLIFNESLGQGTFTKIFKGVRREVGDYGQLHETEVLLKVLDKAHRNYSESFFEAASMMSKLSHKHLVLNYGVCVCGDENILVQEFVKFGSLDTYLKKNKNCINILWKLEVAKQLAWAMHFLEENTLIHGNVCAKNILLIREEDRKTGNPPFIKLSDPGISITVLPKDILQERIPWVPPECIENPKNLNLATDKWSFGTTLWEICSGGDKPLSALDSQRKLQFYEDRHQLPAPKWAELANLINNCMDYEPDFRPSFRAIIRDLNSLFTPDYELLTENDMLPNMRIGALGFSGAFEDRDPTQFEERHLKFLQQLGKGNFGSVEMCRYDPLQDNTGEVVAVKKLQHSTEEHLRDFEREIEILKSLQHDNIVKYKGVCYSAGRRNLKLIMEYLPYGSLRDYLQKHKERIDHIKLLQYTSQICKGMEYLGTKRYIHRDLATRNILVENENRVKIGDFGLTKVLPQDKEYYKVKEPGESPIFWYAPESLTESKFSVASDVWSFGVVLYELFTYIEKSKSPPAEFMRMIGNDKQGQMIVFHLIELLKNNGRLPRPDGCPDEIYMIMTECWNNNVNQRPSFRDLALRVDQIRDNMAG

| SMILES | JAK2/JAK1 (JAK2) | PI3K inhibition (PI3K) |
| --- | --- | --- |
| N#CCC(C1CCN(c2cccc(Cl)n2)C1)n1cc(-c2ncnc3[nH]ccc23)cn1 (single isomer, unassigned) [Compound 3, 3-[1-(6-chloropyridin-2-yl)pyrrolidin-3-yl]-3-[4-(7H-pyrrolo[2,3-d]pyrimidin-4-yl)-1H-pyrazol-1-yl]propanenitrile] | >10 | – |
| N#CCC(C1CCN(c2nc3cccnc3o2)C1)n1cc(-c2ncnc3[nH]ccc23)cn1 (stereo not shown) [Compound 4, 3-(1-[1,3]oxazolo[5,4-b]pyridin-2-ylpyrrolidin-3-yl)-3-[4-(7H-pyrrolo[2,3-d]pyrimidin-4-yl)-1H-pyrazol-1-yl]propanenitrile] | >10 | – |
| N#CCC(CN1CCN(C(=O)c2ccc(C#N)cc2F)CC1)n1cc(-c2ncnc3[nH]ccc23)cn1 (stereo not shown) [Compound 5, 4-[(4-{3-cyano-2-[4-(7H-pyrrolo[2,3-d]pyrimidin-4-yl)-1H-pyrazol-1-yl]propyl}piperazin-1-yl)carbonyl]-3-fluorobenzonitrile] | >10 | – |
| N#CCC(CN1CCN(C(=O)c2ccc(C#N)cc2F)CC1)n1ccc(-c2ncnc3[nH]ccc23)c1 (stereo not shown) [Compound 6, 4-[(4-{3-cyano-2-[3-(7H-pyrrolo[2,3-d]pyrimidin-4-yl)-1H-pyrrol-1-yl]propyl}piperazin-1-yl)carbonyl]-3-fluorobenzonitrile] | >10 | – |
| N#CCC1(n2cc(-c3ncnc4[nH]ccc34)cn2)CN(C2CCN(C(=O)c3ccnc(C(F)(F)F)c3F)CC2)C1 [Compound 7, {1-{1-[3-Fluoro-2-(trifluoromethyl)isonicotinoyl]piperidin-4-yl}-3-[4-(7H-pyrrolo[2,3-d]pyrimidin-4-yl)-1H-pyrazol-1-yl]azetidin-3-yl}acetonitrile] | >10 | – |
| N#CCC1(n2cc(-c3ncnc4[nH]ccc34)cn2)CN(C2CCN(C(=O)Nc3ccc(F)cc3C(F)(F)F)CC2)C1 [Compound 8] | >10 | – |
| N#CCC1(n2cc(-c3ncnc4[nH]ccc34)cn2)CN(C2CCN(C(=O)c3ccnc(C(F)(F)F)n3)CC2)C1 [Compound 9, [3-[4-(7H-pyrrolo[2,3-d]pyrimidin-4-yl)-1H-pyrazol-1-yl]-1-(1-{[2-(trifluoromethyl)pyrimidin-4-yl]carbonyl}piperidin-4-yl)azetidin-3-yl]acetonitrile] | >10 | – |
| N#CC[C@]1(n2cc(-c3ncnc4[nH]ccc34)cn2)C[C@H](N2CCN(C(=O)c3ccnc(C(F)(F)F)n3)CC2)C1 [Compound 10, [trans-1-[4-(7H-pyrrolo[2,3-d]pyrimidin-4-yl)-1H-pyrazol-1-yl]-3-(4-{[2-(trifluoromethyl)pyrimidin-4-yl]carbonyl}piperazin-1-yl)cyclobutyl]acetonitrile] | >10 | – |
| N#CC[C@]1(n2cc(-c3ncnc4[nH]ccc34)cn2)C[C@H](N2CCC(Oc3cc(CN4CC(O)C4)cc(C(F)(F)F)n3)CC2)C1 [Compound 11, {trans-3-(4-{[4-[(3-hydroxyazetidin-1-yl)methyl]-6-(trifluoromethyl)pyridin-2-yl]oxy}piperidin-1-yl)-1-[4-(7H-pyrrolo[2,3-d]pyrimidin-4-yl)-1H-pyrazol-1-yl]cyclobutyl}acetonitrile] | >10 | – |
| N#CC[C@]1(n2cc(-c3ncnc4[nH]ccc34)cn2)C[C@H](N2CCC(Oc3cc(CN4CCC[C@H]4CO)cc(C(F)(F)F)n3)CC2)C1 [Compound 12, {trans-3-(4-{[4-{[(2S)-2-(hydroxymethyl)pyrrolidin-1-yl]methyl}-6-(trifluoromethyl)pyridin-2-yl]oxy}piperidin-1-yl)-1-[4-(7H-pyrrolo[2,3-d]pyrimidin-4-yl)-1H-pyrazol-1-yl]cyclobutyl}acetonitrile] | >10 | – |
| N#CC[C@]1(n2cc(-c3ncnc4[nH]ccc34)cn2)C[C@H](N2CCC(Oc3cc(CN4CCC[C@@H]4CO)cc(C(F)(F)F)n3)CC2)C1 [Compound 13, {trans-3-(4-{[4-{[(2R)-2-(hydroxymethyl)pyrrolidin-1-yl]methyl}-6-(trifluoromethyl)pyridin-2-yl]oxy}piperidin-1-yl)-1-[4-(7H-pyrrolo[2,3-d]pyrimidin-4-yl)-1H-pyrazol-1-yl]cyclobutyl}acetonitrile] | >10 | – |
| C[C@H](NC(=O)c1cc(F)c(N2CC(CC#N)(n3cc(-c4ncnc5[nH]ccc45)cn3)C2)cc1F)C(F)(F)F [Compound 16, 4-{3-(cyanomethyl)-3-[4-(7H-pyrrolo[2,3-d]pyrimidin-4-yl)-1H-pyrazol-1-yl]azetidin-1-yl}-2,5-difluoro-N-[(1S)-2,2,2-trifluoro-1-methylethyl]benzamide] | >10 | – |
| N#CCC1(n2cc(-c3ncnc4[nH]ccc34)cn2)CN([C@H]2CC[C@@H](Oc3cc(CCO)nc(C(F)(F)F)n3)CC2)C1 [Compound 18, {1-(cis-4-{[6-(2-hydroxyethyl)-2-(trifluoromethyl)pyrimidin-4-yl]oxy}cyclohexyl)-3-[4-(7H-pyrrolo[2,3-d]pyrimidin-4-yl)-1H-pyrazol-1-yl]azetidin-3-yl)acetonitrile] | >10 | – |
| CCNCc1cc(O[C@H]2CC[C@@H](N3CC(CC#N)(n4cc(-c5ncnc6[nH]ccc56)cn4)C3)CC2)nc(C(F)(F)F)c1 [Compound 19, {1-(cis-4-{[4-[(ethylamino)methyl]-6-(trifluoromethyl)pyridin-2-yl]oxy}cyclohexyl)-3-[4-(7H-pyrrolo[2,3-d]pyrimidin-4-yl)-1H-pyrazol-1-yl]azetidin-3-yl}acetonitrile] | >10 | – |
| CC(C)(O)c1cc(O[C@H]2CC[C@@H](N3CC(CC#N)(n4cc(-c5ncnc6[nH]ccc56)cn4)C3)CC2)nc(C(F)(F)F)c1 [Compound 20, {1-(cis-4-{[4-(1-hydroxy-1-methylethyl)-6-(trifluoromethyl)pyridin-2-yl]oxy}cyclohexyl)-3-[4-(7H-pyrrolo[2,3-d]pyrimidin-4-yl)-1H-pyrazol-1-yl]azetidin-3-yl}acetonitrile] | >10 | – |
| N#CCC1(n2cc(-c3ncnc4[nH]ccc34)cn2)CN([C@H]2CC[C@@H](Oc3cc(CN4CC[C@@H](O)C4)cc(C(F)(F)F)n3)CC2)C1 [Compound 21, {1-(cis-4-{[4-{[(3R)-3-hydroxypyrrolidin-1-yl]methyl}-6-(trifluoromethyl)pyridin-2-yl]oxy}cyclohexyl)-3-[4-(7H-pyrrolo[2,3-d]pyrimidin-4-yl)-1H-pyrazol-1-yl]azetidin-3-yl}acetonitrile] | >10 | – |
| N#CCC1(n2cc(-c3ncnc4[nH]ccc34)cn2)CN([C@H]2CC[C@@H](Oc3cc(CN4CC[C@H](O)C4)cc(C(F)(F)F)n3)CC2)C1 [Compound 22, {1-(cis-4-{[4-{[(3S)-3-hydroxypyrrolidin-1-yl]methyl}-6-(trifluoromethyl)pyridin-2-yl]oxy}cyclohexyl)-3-[4-(7H-pyrrolo[2,3-d]pyrimidin-4-yl)-1H-pyrazol-1-yl]azetidin-3-yl}acetonitrile] | >10 | – |
| C[C@@H](CO)NCc1cc(OC2CCN([C@H]3C[C@](CC#N)(n4cc(-c5ncnc6[nH]ccc56)cn4)C3)CC2)nc(C(F)(F)F)c1 [Compound 23, {trans-3-(4-{[4-({[(1S)-2-hydroxy-1-methylethyl]amino}methyl)-6-(trifluoromethyl)pyridin-2-yl]oxy}piperidin-1-yl)-1-[4-(7H-pyrrolo[2,3-d]pyrimidin-4-yl)-1H-pyrazol-1-yl]cyclobutyl}acetonitrile] | >10 | – |
| C[C@@H](O)CNCc1cc(OC2CCN([C@H]3C[C@](CC#N)(n4cc(-c5ncnc6[nH]ccc56)cn4)C3)CC2)nc(C(F)(F)F)c1 [Compound 24, {trans-3-(4-{[4-({[(2R)-2-hydroxypropyl]amino}methyl)-6-(trifluoromethyl)pyridin-2-yl]oxy}piperidin-1-yl)-1-[4-(7H-pyrrolo[2,3-d]pyrimidin-4-yl)-1H-pyrazol-1-yl]cyclobutyl}acetonitrile] | >10 | – |
| C[C@H](O)CNCc1cc(OC2CCN([C@H]3C[C@](CC#N)(n4cc(-c5ncnc6[nH]ccc56)cn4)C3)CC2)nc(C(F)(F)F)c1 [Compound 25, {trans-3-(4-{[4-({[(2S)-2-hydroxypropyl]amino}methyl)-6-(trifluoromethyl)pyridin-2-yl]oxy}piperidin-1-yl)-1-[4-(7H-pyrrolo[2,3-d]pyrimidin-4-yl)-1H-pyrazol-1-yl]cyclobutyl}acetonitrile] | >10 | – |
| N#CC[C@]1(n2cc(-c3ncnc4[nH]ccc34)cn2)C[C@H](N2CCC(Oc3cc(CCO)cc(C(F)(F)F)n3)CC2)C1 [Compound 26, {trans-3-(4-{[4-(2-hydroxyethyl)-6-(trifluoromethyl)pyridin-2-yl]oxy}piperidin-1-yl)-1-[4-(7H-pyrrolo[2,3-d]pyrimidin-4-yl)-1H-pyrazol-1-yl]cyclobutyl}acetonitrile] | >10 | – |
| CCOc1c([C@H](C)n2nc(C)c3c(N)ncnc32)cc(Cl)c(F)c1[C@@H]1CNC(=O)C1 [compound of Formula I, (R)-4-(3-((S)-1-(4-amino-3-methyl-1H-pyrazolo[3,4-d]pyrimidin-1-yl)ethyl)-5-chloro-2-ethoxy-6-fluorophenyl)pyrrolidin-2-one] | – | found to be PI3K inhibitors |

From patent US11084822B2, “Salts and processes of preparing a PI3K inhibitor” (Incyte Corporation, priority 2015, dated 2021)
